Measured values reported in patent publication US11708353B2, “Inhibitors of prolyl-tRNA-synthetase” (The General Hospital Corporation, priority 2018, dated 2023).

Test system: P. falciparum Dd2 (>100× resistence to halofuginone)
Experiment: SYBR Green I asexual blood stage growth assay, Dd2 >100x halofuginone-resistant
Assay type: cell-based
Settings: Plasmodium falciparum, DD2, 72 h, read-out: P. falciparum Dd2 (>100× resistence to halofuginone) Asexual blood stage IC50 (nM)
Method: (§1) P. falciparum parasite growth was determined using a fluorescence assay based on the SYBR Green I method according to previously reported protocols (see e.g., Johnson et al, Antimicrob. Agents Chemother. 2007, 51(6):1926-1933). P. falciparum parasites were seeded in 384-well plates at 1% hematocrit and 1% starting parasitemia. Growth was assessed by SYBR Green staining of parasite DNA after 72-hour exposure to compound. All dose-response assays were carried out with 12-point dilutions in technical triplicate. Compounds were dispensed with an HP D300 Digital Dispenser (Hewlett Packard, Palo Alto, Calif., USA). Fluorescence intensity measurements were performed on a SpectraMax M5 (Molecular Devices, Sunnyvale, Calif., USA) and analyzed in GraphPad Prism version 7 (GraphPad Software, La Jolla, Calif., USA) after background subtraction and normalization to control wells. EC50 values were determined using a four-parameter nonlinear regression curve fit from at least three assays and are represented as mean±standard deviation. Statistical significance was determined by the Mann Whitney test.
Work on `O=C(NC1Cc2ccccc2C1)c1nccnc1NC(=O)N1CCCCC1` [Compound 18] yielded an IC50 of 74 nM.

Test system: wild-type 3D7 parasites
Experiment: Antiparasitic activity in wild-type 3D7 parasites
Assay type: cell-based
Settings: Plasmodium falciparum, 3D7, read-out: EC50 in wild-type parasites
Method: as §1, with “test. […]” for “test.”
`O=C(NC1Cc2ccccc2C1)c1nccnc1NC(=O)N1CCCCC1` [Compound 18] gave an EC50 of 0.078 µM.

Test system: HFG-tolerant 3D7 parasites
Experiment: Antiparasitic activity in HFG-tolerant 3D7 parasites
Assay type: cell-based
Settings: Plasmodium falciparum, 3D7, read-out: EC50 in HFG-tolerant parasites
Method: as §1, with “test. […]” for “test.”
For `O=C(NC1Cc2ccccc2C1)c1nccnc1NC(=O)N1CCCCC1` [Compound 18], the EC50 was 0.13 µM.

Target: T1, Plasmodium falciparum cytoplasmic prolyl tRNA synthetase (PfcPRS) (Plasmodium falciparum, UniProt Q8I5R7)
T1 sequence (Q8I5R7 1-746): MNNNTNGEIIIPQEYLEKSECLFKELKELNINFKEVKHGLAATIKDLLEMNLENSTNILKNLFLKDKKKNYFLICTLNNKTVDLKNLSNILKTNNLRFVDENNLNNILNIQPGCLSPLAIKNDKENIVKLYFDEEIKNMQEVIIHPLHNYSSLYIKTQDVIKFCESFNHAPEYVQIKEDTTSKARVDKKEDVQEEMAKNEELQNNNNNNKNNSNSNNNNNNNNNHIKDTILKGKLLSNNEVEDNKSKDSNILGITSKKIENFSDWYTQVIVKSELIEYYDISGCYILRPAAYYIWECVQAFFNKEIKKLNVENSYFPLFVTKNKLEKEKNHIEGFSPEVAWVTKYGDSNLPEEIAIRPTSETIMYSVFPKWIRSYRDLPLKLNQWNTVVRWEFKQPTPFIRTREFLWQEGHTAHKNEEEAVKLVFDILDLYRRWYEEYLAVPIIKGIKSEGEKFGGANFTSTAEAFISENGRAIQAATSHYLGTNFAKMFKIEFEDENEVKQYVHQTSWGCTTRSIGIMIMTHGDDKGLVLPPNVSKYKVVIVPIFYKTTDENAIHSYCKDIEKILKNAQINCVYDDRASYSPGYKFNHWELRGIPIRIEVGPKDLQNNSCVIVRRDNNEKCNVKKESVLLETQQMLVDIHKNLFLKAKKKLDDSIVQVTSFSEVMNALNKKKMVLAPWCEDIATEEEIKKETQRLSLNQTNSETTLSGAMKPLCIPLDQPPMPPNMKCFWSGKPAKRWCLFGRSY
Experiment: Thermal shift (differential scanning fluorimetry) assay
Assay type: binding
Settings: not given
Method: Thermal shift assays were performed in tetricate as previously described (Hewitt et al., 2016). 12.5 μL solutions of 0.14 mg/mL purified recombinant Plasmodium falciparum cytoplasmic prolyl tRNA synthetase (PfcPRS) in a buffer containing […] test compounds (1 mM Compound 18+1 mM Proline; 1 mM Compound 18+0 mM Proline; or DMSO vehicle control), 25 mM HEPES, pH 7.0, 100 mM NaCl, 5 v/v % glycerol, 1 mM TCEP, and optionally 1 mM Proline were incubated at 37° C. for 2 hours in 96 well PCR plates. To this was added 2.5 μL 8× SYRPO Orange Dye (Applied Biosystems 4461141) and 5 μL Protein Thermal Shift Buffer (Applied Biosystems 4461335). Protein stability for protein samples containing the test compounds was compared with apo protein samples by measuring an increase in fluorescence as detected on an Applied Biosystems SDS 7500 Fast qPCR Thermocycler from 25° C. to 99° C. at half degree increments.
In the case of `O=C(NC1Cc2ccccc2C1)c1nccnc1NC(=O)N1CCCCC1` [Compound 18], the “Binding mode to PfcPRS relative to proline” value is reported as “binds PfcPRS in proline-uncompetitive fashion”.

Same assay, conditions: with 1 mM vs 0 mM Proline, FIG. 3C
For `O=C(NC1Cc2ccccc2C1)c1nccnc1NC(=O)N1CCCCC1` [Compound 18], the “Effect of proline on binding to PfcPRS (differential scanning fluorimetry)” value was “Pro potentiates Compound 18 binding to PfcPRS”.

Test system: P. falciparum Dd2 wildtype
Experiment: SYBR Green I asexual blood stage growth assay, Dd2 wildtype
Assay type: cell-based
Settings: Plasmodium falciparum, DD2, 72 h, read-out: P. falciparum Dd2 wildtype Asexual blood stage EC50 (nM)
Method: as §1
`O=C(CCCC(=O)NC1(C(=O)Nc2nccnc2C(=O)NC2Cc3ccccc3C2)CCCCC1)NCCOCCOCCNC(=O)COc1cccc2c1C(=O)N(C1CCC(=O)NC1=O)C2=O` (stereo not drawn) [Compound 33] gave an EC50 of 8540 nM.

Same assay, conditions: Plasmodium falciparum, DD2; 72-hour exposure, SYBR Green; read-out: P. falciparum Dd2 wildtype Asexual blood stage EC50
With `NCCCCNC(=O)Nc1nccnc1C(=O)NC1Cc2ccccc2C1` [Compound 1] the EC50 was > 10000 nM.
For `O=C(C[C@H]1NCCC[C@@H]1OC(=O)NCCCCNC(=O)Nc1nccnc1C(=O)NC1Cc2ccccc2C1)Cn1cnc2cc(Br)c(Cl)cc2c1=O` [Compound 2], the EC50 was > 10000 nM.
In the case of `CC(C)(C)OC(=O)N1CCC[C@H]1C(=O)NCCCCNC(=O)Nc1nccnc1C(=O)NC1Cc2ccccc2C1` [Compound 3], the EC50 is reported as > 10000 nM.
For `O=C(NCCCCNC(=O)[C@@H]1CCCN1)Nc1nccnc1C(=O)NC1Cc2ccccc2C1` [Compound 4], the EC50 was > 10000 nM.
In the case of `O=C(O)CCCC(=O)Nc1nccnc1C(=O)NC1Cc2ccccc2C1` [Compound 5], the EC50 is reported as > 10000 nM.
`CC(C)(C)OC(=O)N1CCCCC1C(=O)Nc1nccnc1C(=O)NC1Cc2ccccc2C1` (stereo not drawn) [Compound 6] gave an EC50 of 3790 nM.
For `O=C(NC1Cc2ccccc2C1)c1nccnc1NC(=O)C1CCCCN1` (stereo not drawn) [Compound 7], the EC50 was 2990 nM.
With `CC(C)N(C(=O)Nc1nccnc1C(=O)NC1Cc2ccccc2C1)C(C)C` [Compound 8] the EC50 was 499 nM.
`O=C(NC1Cc2ccccc2C1)c1nccnc1NC(=O)C1CCC1` [Compound 9] gave an EC50 of 3540 nM.
In the case of `CN1CCN(C(=O)Nc2nccnc2C(=O)NC2Cc3ccccc3C2)CC1` [Compound 10], the EC50 is reported as 1830 nM.
`O=C(NC1Cc2ccccc2C1)c1nccnc1NC(=O)N1CCCC(C(=O)O)C1` (stereo not drawn) [Compound 11] showed an EC50 of 6200 nM.
With `Nc1nccnc1C(=O)NCc1ccc(Cl)cc1` [Compound 12] the EC50 was > 10000 nM.
For `O=C(NC1Cc2ccccc2C1)c1nccnc1NC(=O)N(C1CCCCC1)C1CCCCC1` [Compound 13], the EC50 was 4940 nM.
For `C[C@@H]1CCC[C@H](C)N1C(=O)Nc1nccnc1C(=O)NC1Cc2ccccc2C1` [Compound 14], the EC50 was 73 nM.
For `Nc1nccnc1C(=O)NC1Cc2ccccc2C1` [Compound 15], the EC50 was > 10000 nM.
`O=C(NC1Cc2ccccc2C1)c1nccnc1NC(=O)C1CCCCC1` [Compound 16] gave an EC50 of 544 nM.
In the case of `O=C(NC1Cc2ccccc2C1)c1nccnc1NS(=O)(=O)C1CCCCC1` [Compound 17], the EC50 is reported as > 10000 nM.
With `O=C(NC1Cc2ccccc2C1)c1nccnc1NC(=O)N1CCCCC1` [Compound 18] the EC50 was 63 nM.
For `CC1(C(=O)Nc2nccnc2C(=O)NC2Cc3ccccc3C2)CCCCC1` [Compound 19], the EC50 was 173 nM.
In the case of `O=C(NC1Cc2ccccc2C1)c1nccnc1NC(=O)C1CCOCC1` [Compound 20], the EC50 is reported as > 10000 nM.
`O=C(NC1Cc2ccccc2C1)c1nccnc1NC(=O)C1(O)CCCCC1` [Compound 21] gave an EC50 of 1350 nM.
`O=C(NC1Cc2ccccc2C1)c1nccnc1N(C(=O)C1CCCCC1)C(=O)C1CCCCC1` [Compound 22] gave an EC50 of 627 nM.
`CC(C)(C)OC(=O)N[C@H]1CC[C@@H](C(=O)Nc2nccnc2C(=O)NC2Cc3ccccc3C2)CC1` [Compound 23] gave an EC50 of 386 nM.
In the case of `O=C(Nc1nccnc1C(=O)NC1Cc2ccccc2C1)c1ccccc1` [Compound 24], the EC50 is reported as > 10000 nM.
In the case of `O=c1[nH]c2nccnc2c(=O)n1C1Cc2ccccc2C1` [Compound 25], the EC50 is reported as > 10000 nM.
`NC(=O)Nc1nccnc1C(=O)NC1Cc2ccccc2C1` [Compound 26] gave an EC50 of 9960 nM.
In the case of `O=C(O)c1nccnc1C(=O)NC1Cc2ccccc2C1` [Compound 27], the EC50 is reported as > 10000 nM.
In the case of `O=C(NC1CCCCC1)c1nccnc1C(=O)NC1Cc2ccccc2C1` [Compound 28], the EC50 is reported as > 10000 nM.
For `Nc1nccnc1C(=O)NC1CCCCC1` [Compound 29], the EC50 was > 10000 nM.
`O=C(NC1CCCCC1)c1nccnc1NC(=O)C1Cc2ccccc2C1` [Compound 30] gave an EC50 of 9540 nM.
For `CNc1nccnc1C(=O)NC1Cc2ccccc2C1` [Compound 31], the EC50 was > 10000 nM.
For `CC(C)(C)OC(=O)NC1(C(=O)Nc2nccnc2C(=O)NC2Cc3ccccc3C2)CCCCC1` [Compound 32], the EC50 was 9520 nM.
For `NC1(C(=O)Nc2nccnc2C(=O)NC2Cc3ccccc3C2)CCCCC1` [Compound 34], the EC50 was 4840 nM.
In the case of `O=C(NC1Cc2ccccc2C1)c1nccnc1NC(=S)NC1CCCCC1` [Compound 35], the EC50 is reported as 8270 nM.
In the case of `O=C(Nc1nccnc1C(=O)NC1Cc2ccccc2C1)NC1CCCCC1` [Compound 36], the EC50 is reported as > 10000 nM.
In the case of `O=C(NC1Cc2ccccc2C1)c1nccnc1NCC1CCCCC1` [Compound 37], the EC50 is reported as > 10000 nM.
In the case of `CN(C(=O)c1nccnc1N)C1Cc2ccccc2C1` [Compound 38], the EC50 is reported as > 10000 nM.
In the case of `O=C(Nc1nccnc1C(=O)NC1Cc2ccccc2C1)NC12CC3CC(CC(C3)C1)C2` [Compound 39], the EC50 is reported as > 10000 nM.

Test system: P. falciparum
Experiment: not given
Settings: read-out: EC50 against P. falciparum in whole-cell assays; cited from earlier work
For `Nc1ncnc2c1ncn2[C@@H]1O[C@H](COS(=O)(=O)NC(=O)[C@@H]2CCCN2)[C@@H](O)[C@H]1O` [ProSA, L-prolyl-sulfamoyl adenosine], the EC50 is listed as 0.097 µM.

Test system: P. falciparum Dd2 (10× resistence to halofuginone)
Experiment: SYBR Green I asexual blood stage growth assay, Dd2 10x halofuginone-resistant
Assay type: cell-based
Settings: Plasmodium falciparum, DD2, 72 h, read-out: P. falciparum Dd2 (10× resistence to halofuginone) Asexual blood stage IC50 (nM)
Method: as §1
`O=C(NC1Cc2ccccc2C1)c1nccnc1NC(=O)C1CCCCC1` [Compound 16] showed an IC50 of 1160 nM.
Work on `O=C(NC1Cc2ccccc2C1)c1nccnc1NC(=O)N1CCCCC1` [Compound 18] yielded an IC50 of 130 nM.

Test system: eIF2α phosphorylation
Experiment: not given
Settings: cited from earlier work
In the case of `Nc1ncnc2c1ncn2[C@@H]1O[C@H](COS(=O)(=O)NC(=O)[C@@H]2CCCN2)[C@@H](O)[C@H]1O` [ProSA, L-prolyl-sulfamoyl adenosine], the eIF2α phosphorylation is listed as “induces eIF2α phosphorylation”.
